Measurements taken from ChEMBL document CHEMBL1201862, “PubChem BioAssay data set” (2004).
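Cells were grown in 96-well plates and exposed to each compound for 48 hours at five concentrations; endpoints were interpolated linearly between bracketing concentrations, or set to the highest concentration if not reached. GI50 marks 50% less growth.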 Calls of active or inactive are those of the source. No stated cut-off is given here; in the data, active = GI50 up to about 1.1 µM and inactive = higher.

How the values were obtained:
Experiment in all cases: inhibition of tumour cell growth, NCI panel, 48 h
[1] = system: DLD-1
[2] = system: DMS-114
[3] = system: DMS-273
[4] = system: HOP-18
[5] = system: KM-20L2
[6] = system: M19-MEL
[7] = system: SNB-78
[8] = system: XF498
[9] = system: RXF 631

Row | SMILES | GI50 [1] | GI50 [2] | GI50 [3] | GI50 [4] | GI50 [5] | GI50 [6] | GI50 [7] | GI50 [8] | GI50 [9]
1 | COc1cc2c(c(OC)c1OC)-c1ccc(SC)c(=O)cc1C(CC(=O)Oc1cccc(C#N)c1)C2 (stereo unspecified) | 0.388 µM (active) | 0.251 µM (active) | 0.2 µM (active) | > 100 µM (inactive) | 0.208 µM (active) | 0.303 µM (active) | 0.57 µM (active) | 0.316 µM (active) | –
2 | CCCCN(CCCC)/C(=N\C#N)NCc1ccccc1 | 23.8 µM (inactive) | – | 24.6 µM (inactive) | 46.6 µM (inactive) | 22 µM (inactive) | 19 µM (inactive) | 26.5 µM (inactive) | – | –
3 | CC1=CC(=O)NP(=O)(C23CC4CC(CC(C4)C2)C3)N1 (stereo unspecified) | > 100 µM (inactive) | – | > 100 µM (inactive) | > 100 µM (inactive) | > 100 µM (inactive) | > 100 µM (inactive) | > 100 µM (inactive) | > 100 µM (inactive) | > 100 µM (inactive)
4 | CC(=O)Nc1ccc(C(=O)NN2C(=O)C(Cl)C2c2ccc(O)cc2)cc1 (stereo unspecified) | > 100 µM (inactive) | – | > 100 µM (inactive) | – | > 100 µM (inactive) | > 100 µM (inactive) | > 100 µM (inactive) | 52.8 µM (inactive) | –
5 | CC1(C)CC(=O)C(CC2C(=O)c3ccccc3C2=O)C(=O)C1 | > 100 µM (inactive) | > 100 µM (inactive) | > 100 µM (inactive) | > 100 µM (inactive) | > 100 µM (inactive) | > 100 µM (inactive) | > 100 µM (inactive) | – | –
6 | Cc1cc(NS(=O)(=O)c2ccc(NC(=O)c3ccc(Cl)c4c(Nc5ccc(S(N)(=O)=O)cc5)c5ccccc5nc34)cc2)no1 | 21.7 µM (inactive) | 20.2 µM (inactive) | 21.5 µM (inactive) | 30.1 µM (inactive) | 24.5 µM (inactive) | 20 µM (inactive) | 36.8 µM (inactive) | 19.5 µM (inactive) | 21.6 µM (inactive)
7 | CCOC(=O)CNC1C(NC(C)=O)C(OC)OC2COC(c3ccccc3)OC21 (stereo unspecified) | – | > 100 µM (inactive) | > 100 µM (inactive) | > 100 µM (inactive) | > 100 µM (inactive) | > 100 µM (inactive) | > 100 µM (inactive) | – | > 100 µM (inactive)
8 | O=C(O)CCc1coc2ccc(O)cc12 | > 100 µM (inactive) | > 100 µM (inactive) | > 100 µM (inactive) | > 100 µM (inactive) | > 100 µM (inactive) | > 100 µM (inactive) | > 100 µM (inactive) | > 100 µM (inactive) | –
9 | C=C1C(=O)OC2/C=C(\CO)C3OC3C3OC3(C)CC(OC(=O)/C(=C/C)COC(C)=O)C12 (stereo unspecified) | 1.11 µM (active) | 5.87 µM (inactive) | 3.12 µM (inactive) | 9.79 µM (inactive) | 6.17 µM (inactive) | 1.88 µM (inactive) | 1.73 µM (inactive) | 1.8 µM (inactive) | –
10 | OCCCCOC(c1ccccc1)(c1ccccc1)c1ccccc1 | > 100 µM (inactive) | > 100 µM (inactive) | > 100 µM (inactive) | – | > 100 µM (inactive) | – | > 100 µM (inactive) | > 100 µM (inactive) | –
11 | C=CCC(C)(C(=O)NCCC)C(=O)c1ccccc1O (stereo unspecified) | > 100 µM (inactive) | > 100 µM (inactive) | > 100 µM (inactive) | > 100 µM (inactive) | > 100 µM (inactive) | > 100 µM (inactive) | > 100 µM (inactive) | – | –
12 | C=CCNC1=C(C(=O)OCC)C(=O)CO1 | > 100 µM (inactive) | > 100 µM (inactive) | > 100 µM (inactive) | – | > 100 µM (inactive) | > 100 µM (inactive) | > 100 µM (inactive) | > 100 µM (inactive) | > 100 µM (inactive)
13 | COc1cc(Br)c(CC2(C#N)c3ccccc3C3C(N2C(=O)c2ccccc2)C3(Cl)Cl)cc1OC (stereo unspecified) | 19.3 µM (inactive) | 16.3 µM (inactive) | 2.69 µM (inactive) | > 65.5 µM (inactive) | > 65.5 µM (inactive) | – | > 65.5 µM (inactive) | > 65.5 µM (inactive) | –
14 | C=CCNC(=S)N1CC(C)C(=O)Nc2cc(Cl)ccc21 (stereo unspecified) | > 100 µM (inactive) | > 100 µM (inactive) | > 100 µM (inactive) | 39.4 µM (inactive) | > 100 µM (inactive) | > 100 µM (inactive) | > 100 µM (inactive) | – | –
15 | COC(=O)[C@H](CC(C)C)NC(=O)[C@H](Cc1ccccc1)N1CC2C=CC1C2 (stereo partly specified) | – | > 100 µM (inactive) | > 100 µM (inactive) | > 100 µM (inactive) | > 100 µM (inactive) | > 100 µM (inactive) | – | > 100 µM (inactive) | –
16 | Cc1c(C(=O)CSc2nc3ccccc3[nH]2)c(=O)n(-c2ccccc2)n1C | > 100 µM (inactive) | – | > 100 µM (inactive) | – | > 100 µM (inactive) | > 100 µM (inactive) | > 100 µM (inactive) | > 100 µM (inactive) | –
17 | CC(=O)C(O)N1C(=O)C=CC1=O (stereo unspecified) | 1.88 µM (inactive) | 5.86 µM (inactive) | 14.7 µM (inactive) | 25.3 µM (inactive) | – | 5.89 µM (inactive) | 16.9 µM (inactive) | 17.3 µM (inactive) | 18.7 µM (inactive)
18 | Cc1ccc(C(=O)NCc2ccccc2)cc1/N=N/N(C)C | > 100 µM (inactive) | – | > 100 µM (inactive) | – | 65.9 µM (inactive) | > 100 µM (inactive) | > 100 µM (inactive) | – | –
19 | c1ccc(COC2(OCc3ccccc3)CC3OC2C2NN=NC32)cc1 (stereo unspecified) | 15.8 µM (inactive) | – | 21.2 µM (inactive) | 36.2 µM (inactive) | 54.6 µM (inactive) | 17.7 µM (inactive) | 28.7 µM (inactive) | 19.3 µM (inactive) | –
20 | Cc1c(/C=N/NC(=O)c2ccccc2)c(=O)n(-c2ccccc2)n1C | > 100 µM (inactive) | > 100 µM (inactive) | > 100 µM (inactive) | > 100 µM (inactive) | > 100 µM (inactive) | > 100 µM (inactive) | > 100 µM (inactive) | > 100 µM (inactive) | –
21 | CCOC(=O)/C(C#N)=C/c1[nH]c(C(=O)OCc2ccccc2)c(C)c1C | > 100 µM (inactive) | > 100 µM (inactive) | > 100 µM (inactive) | > 100 µM (inactive) | > 100 µM (inactive) | > 100 µM (inactive) | – | – | > 100 µM (inactive)
22 | COc1ccc2nc(NC(=O)C(=O)C(C(=O)c3ccccc3-c3ccccc3)C3OC(=O)c4ccccc43)sc2c1 (stereo unspecified) | 18.7 µM (inactive) | 16.6 µM (inactive) | – | – | 25.1 µM (inactive) | 15.1 µM (inactive) | 35 µM (inactive) | 21.5 µM (inactive) | 26.6 µM (inactive)
